# Reference: PubChem BioAssay (NCI)
#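 All cell lines were grown in 96-well plates and treated with compound for 48 hours. GI50 = concentration required for 50% inhibition of growth. TGI: total growth inhibition.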
# How the values were obtained:
# Test in all cases: NCI-60 cell line screen, 48 h
# [1] = system: KM12 colon
# [2] = system: SF-268 CNS
# [3] = system: UACC-62 melanoma
# [4] = system: K-562 leukemia
# [5] = system: HCT-15 colon
# [6] = system: HS 578T breast
# [7] = system: TK-10 renal
# [8] = system: OVCAR-3 ovarian
# [9] = system: NCI/ADR-RES ovarian
# [10] = system: SNB-19 CNS
# [11] = system: HT29 colon
# [12] = system: MOLT-4 leukemia
# [13] = system: T-47D breast
# [14] = system: RXF 393 renal
# [15] = system: 786-0 renal
# [16] = system: SK-OV-3 ovarian
# [17] = system: DU-145 prostate
# [18] = system: BT-549 breast
# [19] = system: NCI-H522 lung
# [20] = system: SF-539 CNS
# [21] = system: U251 CNS
# [22] = system: SR leukemia
# [23] = system: MALME-3M melanoma
# [24] = system: HOP-92 NSCLC
# [25] = system: HOP-62 NSCLC
# [26] = system: PC-3 prostate
# [27] = system: HCC-2998 colon
# [28] = system: SF-295 CNS
# [29] = system: OVCAR-4 ovarian
# [30] = system: RPMI-8226 leukemia
# [31] = system: A549 NSCLC
# [32] = system: NCI-H460 lung
# [33] = system: OVCAR-5 ovarian
# [34] = system: MDA-MB-468 breast
# [35] = system: MDA-MB-435
# [36] = system: M14 melanoma
# [37] = system: SK-MEL-28 melanoma
# [38] = system: MCF7 breast
# [39] = system: UO-31 renal
# [40] = system: ACHN renal
# [41] = system: CAKI-1 renal
# [42] = system: SW-620 colon
# [43] = system: HL-60(TB) leukemia
# [44] = system: CCRF-CEM leukemia
# [45] = system: HCT-116 colon
# [46] = system: UACC-257 melanoma
# [47] = system: NCI-H226 lung
# [48] = system: SK-MEL-5 melanoma
# [49] = system: SK-MEL-2 melanoma
# [50] = system: NCI-H23 lung
# [51] = system: EKVX NSCLC
# [52] = system: SN12C renal
# [53] = system: OVCAR-8 ovarian
# [54] = system: IGROV1 ovarian
# [55] = system: MDA-MB-231 breast
# [56] = system: A498 renal
# [57] = system: COLO 205 colon
# [58] = system: LOX IMVI melanoma
compound,measurement,setting,value
O=C(NNc1nc2cc(F)ccc2n2c(CN3CC4CNCC4C3)ccc12)c1ccncn1 (stereo unspecified),GI50,[1],1.78 µM
same,TGI,[1],16.2 µM
same,GI50,[2],1.71 µM
same,TGI,[2],15 µM
same,GI50,[3],1.19 µM
same,TGI,[3],3.41 µM
same,GI50,[4],1.76 µM
same,TGI,[4],11.9 µM
same,GI50,[5],0.746 µM
same,TGI,[5],15.9 µM
same,GI50,[6],10 µM
same,TGI,[6],81.9 µM
same,GI50,[7],0.648 µM
same,TGI,[7],16.4 µM
same,GI50,[8],3.26 µM
same,TGI,[8],17.3 µM
same,GI50,[9],11.5 µM
same,TGI,[9],29.9 µM
same,GI50,[10],2.67 µM
same,TGI,[10],16.6 µM
same,GI50,[11],2.02 µM
same,TGI,[11],18.1 µM
same,GI50,[12],1.45 µM
same,TGI,[12],9.6 µM
same,GI50,[13],3.11 µM
same,TGI,[13],14.7 µM
same,GI50,[14],1.58 µM
same,TGI,[14],12.8 µM
same,GI50,[15],0.5 µM
same,TGI,[15],11.3 µM
same,GI50,[16],0.984 µM
same,TGI,[16],12.1 µM
same,GI50,[17],3.26 µM
same,TGI,[17],15.7 µM
same,GI50,[18],1.59 µM
same,TGI,[18],13.2 µM
same,GI50,[19],2.36 µM
same,TGI,[19],11.7 µM
same,GI50,[20],1.56 µM
same,TGI,[20],6.4 µM
same,GI50,[21],0.78 µM
same,TGI,[21],12.2 µM
same,GI50,[22],0.751 µM
same,TGI,[22],9.24 µM
same,GI50,[23],2.17 µM
same,TGI,[23],8.75 µM
same,GI50,[24],0.0544 µM
same,TGI,[24],6.37 µM
same,GI50,[25],0.686 µM
same,TGI,[25],12.1 µM
same,GI50,[26],2.11 µM
same,TGI,[26],15.4 µM
same,GI50,[27],3.05 µM
same,TGI,[27],17.5 µM
same,GI50,[28],0.421 µM
same,TGI,[28],10.7 µM
same,GI50,[29],1.56 µM
same,TGI,[29],17.3 µM
same,GI50,[30],1.95 µM
same,TGI,[30],10.8 µM
same,GI50,[31],2.09 µM
same,TGI,[31],14.9 µM
same,GI50,[32],0.591 µM
same,TGI,[32],16.1 µM
same,GI50,[33],2.49 µM
same,TGI,[33],17.5 µM
same,GI50,[34],1.21 µM
same,TGI,[34],3.57 µM
same,GI50,[35],3.68 µM
same,TGI,[35],17.6 µM
same,GI50,[36],0.804 µM
same,TGI,[36],4.74 µM
same,GI50,[37],2.36 µM
same,TGI,[37],14.1 µM
same,GI50,[38],2 µM
same,TGI,[38],12.1 µM
same,GI50,[39],0.822 µM
same,TGI,[39],11.7 µM
same,GI50,[40],0.62 µM
same,TGI,[40],11.2 µM
same,GI50,[41],0.654 µM
same,TGI,[41],12.8 µM
same,GI50,[42],2.55 µM
same,TGI,[42],23.1 µM
same,GI50,[43],1.23 µM
same,TGI,[43],4.51 µM
same,GI50,[44],1.55 µM
same,TGI,[44],6.18 µM
same,GI50,[45],0.73 µM
same,TGI,[45],13.7 µM
same,GI50,[46],3.16 µM
same,TGI,[46],11 µM
same,GI50,[47],0.943 µM
same,TGI,[47],6.73 µM
same,GI50,[48],1.52 µM
same,TGI,[48],8.29 µM
same,GI50,[49],2.65 µM
same,TGI,[49],14.7 µM
same,GI50,[50],2.31 µM
same,TGI,[50],10.4 µM
same,GI50,[51],0.441 µM
same,TGI,[51],9.23 µM
same,GI50,[52],1.79 µM
same,TGI,[52],11.8 µM
same,GI50,[53],1.29 µM
same,TGI,[53],10.4 µM
same,GI50,[54],2.36 µM
same,TGI,[54],13.3 µM
same,GI50,[55],2.31 µM
same,TGI,[55],16.2 µM
same,GI50,[56],24.9 µM
same,TGI,[56],40.4 µM
same,GI50,[57],3.05 µM
same,TGI,[57],12.1 µM
same,GI50,[58],1 µM
same,TGI,[58],4.05 µM
